From patent US7888351B2, “Organic compounds” (Novartis AG, priority 2006, dated 2011)

Target: T1, human DPP-IV (Homo sapiens, UniProt P27487)
T1 construct: Human DPP-IV consisting of amino acids 39 to 766 followed by a C-terminal Streptavidin-tag; Streptavidin-tag (C); made in house
Test: Activity assay: inhibitory activity to human DPP-IV (fluorogenic substrate H-Gly-Pro-AMC)
Format: biochemical
Settings: substrate H-Gly-Pro-AMC 10 μM, enzyme 10 pM, room temperature, 1 hour; read-out: hDPPIV IC50
Description: Various compounds of the invention were tested for their inhibitory activity to human DPP-IV.
Human DPP-IV consisting of amino acids 39 to 766 followed by a C-terminal Streptavidin-tag was expressed using the baculovirus system and purified to >80% purity. The enzyme was stored in 25 mM Tris buffer, pH 9.0, containing 300 mM NaCl at −80° C. The fluorogenic substrates H-Gly-Pro-AMC was purchased from Bachem AG (Bubendorf, Switzerland). The substrate was kept as a 5 mM stock solution in DMSO at −20° C. All other chemicals were purchased from Sigma (Buchs, Switzerland).
The assay buffer for the DPP-IV reaction was 25 mM Tris/HCl, pH 7.5, containing 140 mM NaCl, 10 mM KCl and 0.05% (w/v) CHAPS.
The test compounds were dissolved in 90% DMSO/10% H2O (v/v). Serial dilutions of the compounds from 3 mM to 0.03 μM in 90% DMSO/10% H2O (v/v) followed by a 1:33.3 dilution in assay buffer was done in 96-well polypropylene plates using a CyBio Dilus 8-channel pipetter (CyBio AG, Jena, Germany) with tip change after each pipetting step. The compound solutions as well as the substrate and the enzyme solutions were transferred to the assay plates (384-well black Cliniplate; cat. no. 95040020 Labsystems Oy, Finland) by means of a CyBi-Well 96-channel pipetter (CyBio AG, Jena, Germany).
Enzyme kinetics were measured by mixing 10 μl of a 3-fold concentrated substrate solution in assay buffer (final substrate concentration was 10 μM) with 10 μl of the corresponding compound solution. The reactions were initiated by addition of 10 μl of a 3-fold concentrated solution of the enzyme in assay buffer. Final enzyme (active site) concentrations in the assay was 10 pM for DPP-IV. Fluorescence product (AMC) formation was monitored for 1 hour at room temperature at 35 second intervals by measuring the fluorescence emission at 500 nm using an exitation wavelength of 350 nm in a TECAN Ultra fluorescence reader (TECAN, Maennedorf, Switzerland). The fluorescence in each well was excited by one flash per measurement. The Origin software package (Origin 7.5 Mircocal, Northampton, Mass., USA) was used to generate all graphs and to perform the IC50 calculations.

T1 sequence (P27487 39-766): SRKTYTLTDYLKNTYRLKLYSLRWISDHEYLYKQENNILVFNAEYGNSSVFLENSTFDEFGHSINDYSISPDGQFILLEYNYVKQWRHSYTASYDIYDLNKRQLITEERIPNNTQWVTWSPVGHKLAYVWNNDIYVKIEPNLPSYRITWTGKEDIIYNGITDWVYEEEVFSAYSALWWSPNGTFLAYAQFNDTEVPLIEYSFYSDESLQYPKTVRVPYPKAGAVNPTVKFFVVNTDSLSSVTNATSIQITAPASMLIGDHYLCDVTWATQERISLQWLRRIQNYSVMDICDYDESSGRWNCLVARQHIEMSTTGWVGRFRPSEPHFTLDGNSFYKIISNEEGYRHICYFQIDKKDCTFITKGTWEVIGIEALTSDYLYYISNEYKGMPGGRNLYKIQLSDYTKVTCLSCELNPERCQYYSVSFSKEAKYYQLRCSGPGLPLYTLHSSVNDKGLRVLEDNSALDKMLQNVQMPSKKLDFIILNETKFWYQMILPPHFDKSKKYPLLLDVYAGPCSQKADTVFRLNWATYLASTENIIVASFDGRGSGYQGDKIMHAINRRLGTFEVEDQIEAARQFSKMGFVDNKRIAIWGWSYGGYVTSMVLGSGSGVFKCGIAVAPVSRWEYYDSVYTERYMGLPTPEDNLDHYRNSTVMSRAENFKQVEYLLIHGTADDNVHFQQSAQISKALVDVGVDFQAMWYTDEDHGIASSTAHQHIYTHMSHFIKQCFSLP

Structure (SMILES): Cc1cnc(C(=O)NCCS(=O)(=O)N2[C@@H]3CC[C@H]2C[C@H]([C@H](N)Cc2cc(F)c(F)cc2F)C3)cn1 [Example D1, 5-Methyl-pyrazine-2-carboxylic acid (2-{3-exo-[(R)-1-amino-2-(2,4,5-trifluoro-phenyl)-ethyl]-8-aza-bicyclo[3.2.1]octane-8-sulfonyl}-ethyl)-amide]
- IC50: 7.7 nM

Structure (SMILES): N[C@H](Cc1cc(F)c(F)cc1F)[C@@H]1C[C@H]2CC[C@@H](C1)N2C(=O)CNC(=O)C1(O)CC1 [Example E7, 1-Hydroxy-cyclopropanecarboxylic acid (2-{3-exo-[(R)-1-amino-2-(2,4,5-trifluoro-phenyl)-ethyl]-8-aza-bicyclo[3.2.1]oct-8-yl}-2-oxo-ethyl)-amide]
- IC50: 0.6 nM

Structure (SMILES): C[C@](O)(C(=O)N1[C@@H]2CC[C@H]1C[C@H]([C@H](N)Cc1cc(F)c(F)cc1F)C2)c1ccccc1 [Example G4, (R)-1-{3-exo-[(R)-1-Amino-2-(2,4,5-trifluoro-phenyl)-ethyl]-8-aza-bicyclo[3.2.1]oct-8-yl}-2-hydroxy-2-phenyl-propan-1-one]
- IC50: 10 nM

Structure (SMILES): N[C@H](Cc1cc(F)c(F)cc1F)[C@@H]1C[C@H]2CC[C@@H](C1)N2C(=O)CS(=O)(=O)N1Cc2ccccc2C1 [Example H13, 1-{3-exo-[(R)-1-Amino-2-(2,4,5-trifluoro-phenyl)-ethyl]-8-aza-bicyclo[3.2.1]oct-8-yl}-2-(1,3-dihydro-isoindole-2-sulfonyl)-ethanone]
- IC50: 7 nM
